# Test results: US20250248926A1, “AN INJECTABLE MICROPARTICLE SYSTEM AND METHOD OF PREPARING THEREOF” (AMRITA VISHWA VIDYAPEETHAM, priority 2022, published 2025)
# Read-outs that look alike come from different tables or passages of the source.
# Legend:
# C6 (rat glioma) cells = test: In vitro cytotoxicity, MTT assay, C6 cells; assay type: cell-based
# Method: (§1) Cells of seeding density 4×10^4 cells/well were treated with concentrations from 1 μM-100 μM of BCNU or PL loaded microstructures 24 hours post seeding. MTT assay was performed 96 hours post treatment. […] With radiation, the cell viability of non-drug treated controls reduced by ˜60%.
# [1] = rat brain
# Method: 200-250 g Wistar rats (female) were selected for the study. Respective microparticle gel was injected (10 μl/1 mg BCNU) injected at coordinates 2 mm lateral, 2 mm anterior and 2 mm depth using stereotactic equipment. Animals were euthanized 3, 7 and 15 days post injection, brains were excised and stored at −80° C. Each brain was sliced into 1 mm sections and each section was homogenized in 1 ml MilliQ water (pH 4) and precipitated using 10 ml Ethanol. The samples are centrifuged at 10000 rpm for 15 minutes for drug extraction (repeated 4 times). The solvents are evaporated using a vacuum centrifuge and then remnant pellets are analyzed for their drug content using HPLC.
# [2] = by 3rd hour, CT
# Method: Contrast agent Iodine loaded microstructures are injected in left and right hemispheres of a goat brain phantom and imaged over 4 hours using MicroCT (FIG. 21 (A-E)).
# Iodine loaded microstructures (in the form of injectable gels) are injected in left and right hemispheres of a goat brain phantom and imaged over 4 hours using CT (FIG. 21 (A-E)).
# [3] = system: T98G (human glioma) cells; test: In vitro cytotoxicity, MTT assay, T98G cells; assay type: cell-based; conditions: 100 μM (highest concentration), MTT 96 hours post treatment
# Method: as §1
compound,measurement,setting,value
"O=NN(CCCl)C(=O)NCCCl [free BCNU, 1,3-Bis(2-chloroethyl)-1-nitrosourea]",viability at 100 µM,"C6 (rat glioma) cells; Rattus norvegicus, C6, 96 h, read-out: cells viable (cell viability)",~20%
same,drug in brain,[1]; day-3 post intracranial injection,15%
same,drug in brain,[1]; day-15 post intracranial injection,3.9%
II [Free iodine],diffusion,[2],1.6 cm
"COc1cc(/C=C/C(=O)N2CCC=CC2=O)cc(OC)c1OC [free PL, Piperlongumine]",cells viable (cell viability),"C6 (rat glioma) cells; C6 cells, 100 μM, MTT 96 hours post treatment",~3%
same,cells remaining (cell viability),[3],16.6%
